A word on the IC50: it is the point on the concentration scale where inhibition reaches its midpoint.

Format in all cases: cell-based
The target in one test is T1, human TLR7 (Homo sapiens, UniProt Q9NYK1).
T1 construct: host or cells: HEK-Blue cells
T1 sequence (Q9NYK1 27-1049): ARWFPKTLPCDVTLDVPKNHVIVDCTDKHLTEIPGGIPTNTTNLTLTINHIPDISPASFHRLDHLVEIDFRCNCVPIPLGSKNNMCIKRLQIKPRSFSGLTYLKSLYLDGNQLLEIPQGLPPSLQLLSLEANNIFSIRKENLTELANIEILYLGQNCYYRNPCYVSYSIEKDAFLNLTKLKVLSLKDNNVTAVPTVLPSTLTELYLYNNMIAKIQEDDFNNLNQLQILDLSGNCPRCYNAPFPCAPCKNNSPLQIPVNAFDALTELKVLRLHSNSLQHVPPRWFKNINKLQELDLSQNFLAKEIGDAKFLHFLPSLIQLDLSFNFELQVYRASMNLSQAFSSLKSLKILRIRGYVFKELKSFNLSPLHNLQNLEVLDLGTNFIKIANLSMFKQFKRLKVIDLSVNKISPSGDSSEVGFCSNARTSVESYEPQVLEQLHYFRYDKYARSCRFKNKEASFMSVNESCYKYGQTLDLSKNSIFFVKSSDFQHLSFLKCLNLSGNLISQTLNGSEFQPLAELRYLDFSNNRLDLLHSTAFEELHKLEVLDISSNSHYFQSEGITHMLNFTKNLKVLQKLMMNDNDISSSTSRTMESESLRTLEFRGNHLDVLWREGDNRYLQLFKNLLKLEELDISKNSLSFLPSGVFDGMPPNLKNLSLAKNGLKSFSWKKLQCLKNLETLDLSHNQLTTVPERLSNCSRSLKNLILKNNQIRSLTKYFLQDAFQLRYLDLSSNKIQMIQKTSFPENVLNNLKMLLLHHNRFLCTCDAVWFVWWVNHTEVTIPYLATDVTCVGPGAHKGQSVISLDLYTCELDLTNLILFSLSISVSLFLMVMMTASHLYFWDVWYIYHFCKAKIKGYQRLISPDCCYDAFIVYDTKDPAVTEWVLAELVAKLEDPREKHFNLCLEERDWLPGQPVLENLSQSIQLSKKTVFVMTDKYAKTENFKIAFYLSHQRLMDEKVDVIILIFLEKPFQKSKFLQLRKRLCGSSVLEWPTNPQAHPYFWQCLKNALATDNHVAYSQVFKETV
As to the kind of experiment: TLR7 inhibition reporter assay (HEK-Blue cells, SEAP reporter, gardiquimod stimulation). The conditions noted are these: HEK-Blue cells overexpressing human TLR7, SEAP reporter, gardiquimod 7.5 μM; read-out: TLR7 IC50. In outline: (§1)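 Human TLR7/8/9 HEK-Blue reporter lines; dose range 0.05 nM–50 μM; 30 min RT preincubation; stimulus gardiquimod 7.5 μM / R848 15.9 μM / ODN2006 5 nM respectively; 22 h, 37 °C; SEAP detected colorimetrically.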
(Reporter assays use an easily measured gene product as a stand-in for the process of interest.)

The next test addresses T2, human TLR8 (Homo sapiens, UniProt Q9NR97).
T2 construct: host or cells: HEK-Blue cells
T2 sequence (Q9NR97 27-1041): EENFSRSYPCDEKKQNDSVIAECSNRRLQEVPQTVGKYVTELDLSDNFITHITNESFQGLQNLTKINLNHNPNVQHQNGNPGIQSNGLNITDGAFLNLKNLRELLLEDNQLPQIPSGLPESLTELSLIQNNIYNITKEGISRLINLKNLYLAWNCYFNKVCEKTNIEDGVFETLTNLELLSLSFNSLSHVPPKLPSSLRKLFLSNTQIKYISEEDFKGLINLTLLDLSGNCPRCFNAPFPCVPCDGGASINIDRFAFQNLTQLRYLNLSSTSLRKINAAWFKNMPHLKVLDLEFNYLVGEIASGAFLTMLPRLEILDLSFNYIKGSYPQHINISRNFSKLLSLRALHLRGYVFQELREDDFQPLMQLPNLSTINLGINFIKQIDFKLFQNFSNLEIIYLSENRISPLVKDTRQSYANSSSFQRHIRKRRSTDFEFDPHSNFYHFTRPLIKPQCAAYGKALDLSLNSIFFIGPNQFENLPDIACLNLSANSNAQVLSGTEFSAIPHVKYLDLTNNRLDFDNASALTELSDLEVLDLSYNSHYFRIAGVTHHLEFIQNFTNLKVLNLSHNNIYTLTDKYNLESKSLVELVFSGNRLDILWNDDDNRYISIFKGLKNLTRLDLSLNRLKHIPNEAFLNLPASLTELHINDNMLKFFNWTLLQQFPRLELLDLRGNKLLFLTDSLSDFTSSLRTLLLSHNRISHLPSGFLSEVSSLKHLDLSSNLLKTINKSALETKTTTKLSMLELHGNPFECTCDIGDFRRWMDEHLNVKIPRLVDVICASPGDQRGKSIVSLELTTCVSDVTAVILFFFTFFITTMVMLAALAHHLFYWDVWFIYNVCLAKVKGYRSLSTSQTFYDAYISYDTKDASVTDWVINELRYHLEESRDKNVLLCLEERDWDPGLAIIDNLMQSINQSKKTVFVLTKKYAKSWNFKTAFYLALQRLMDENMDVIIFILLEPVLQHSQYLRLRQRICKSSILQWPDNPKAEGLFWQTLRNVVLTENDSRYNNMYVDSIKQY
Put plainly: TLR8 inhibition reporter assay (HEK-Blue cells, SEAP reporter, R848 stimulation). As to conditions: HEK-Blue cells overexpressing human TLR8, SEAP reporter, R848 15.9 μM; read-out: TLR8 IC50. An outline of the steps: as §1

A further test concerns the target T3, human TLR9 (Homo sapiens, UniProt Q9NR96).
T3 construct: host or cells: HEK-Blue cells
T3 sequence (Q9NR96 26-1032): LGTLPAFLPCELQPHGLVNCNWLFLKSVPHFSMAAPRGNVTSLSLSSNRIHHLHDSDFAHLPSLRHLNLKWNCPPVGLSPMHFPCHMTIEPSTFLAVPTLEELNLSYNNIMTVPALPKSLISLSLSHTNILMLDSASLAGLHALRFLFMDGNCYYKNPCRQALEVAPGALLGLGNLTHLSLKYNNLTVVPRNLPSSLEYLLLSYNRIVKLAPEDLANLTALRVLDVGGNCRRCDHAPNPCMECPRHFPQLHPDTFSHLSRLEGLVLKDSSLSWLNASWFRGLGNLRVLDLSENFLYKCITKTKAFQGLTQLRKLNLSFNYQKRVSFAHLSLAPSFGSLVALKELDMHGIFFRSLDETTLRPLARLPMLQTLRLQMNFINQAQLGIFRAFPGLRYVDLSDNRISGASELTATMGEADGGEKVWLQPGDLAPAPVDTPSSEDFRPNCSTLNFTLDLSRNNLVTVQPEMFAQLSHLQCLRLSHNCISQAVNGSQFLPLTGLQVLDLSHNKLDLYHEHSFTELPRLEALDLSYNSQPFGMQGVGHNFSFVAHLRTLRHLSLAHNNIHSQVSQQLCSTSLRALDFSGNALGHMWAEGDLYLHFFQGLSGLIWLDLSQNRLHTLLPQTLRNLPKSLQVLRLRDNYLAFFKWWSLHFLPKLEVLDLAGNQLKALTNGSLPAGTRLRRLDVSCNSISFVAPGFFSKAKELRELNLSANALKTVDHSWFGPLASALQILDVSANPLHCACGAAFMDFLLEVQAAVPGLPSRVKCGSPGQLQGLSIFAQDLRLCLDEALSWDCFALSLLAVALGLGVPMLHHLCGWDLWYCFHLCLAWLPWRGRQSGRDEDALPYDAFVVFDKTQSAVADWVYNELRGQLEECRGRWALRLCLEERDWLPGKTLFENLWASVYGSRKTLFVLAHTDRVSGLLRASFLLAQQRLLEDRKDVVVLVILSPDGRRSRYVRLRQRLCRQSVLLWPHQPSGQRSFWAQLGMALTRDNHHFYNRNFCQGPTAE
As to the kind of experiment: TLR9 inhibition reporter assay (HEK-Blue cells, SEAP reporter, ODN2006 stimulation). The conditions noted are these: HEK-Blue cells overexpressing human TLR9, SEAP reporter, ODN2006 5 nM. In outline:
as §1

SMILES strings stand for the structures. Counter-ions that a name gives are not always drawn.

As to `Cc1c(-c2[nH]c3sc(C4CCC(NC5CCOCC5)CC4)nc3c2C(C)C)cn(C)c(=O)c1C` (single isomer, unassigned) [Example 250, 5-(6-isopropyl-2-(4-((tetrahydro-2H-pyran-4-yl)amino)cyclohexyl)-4H-pyrrolo[3,2-d]thiazol-5-yl)-1,3,4-trimethylpyridin-2(1H)-one], the half-maximal inhibitory concentration (IC50) was determined as 46.8 nM at human TLR7, 43.6 nM on human TLR8 and 43300 nM against human TLR9.
For the molecule `Cc1c(-c2[nH]c3sc(N4CCNC[C@H]4C)nc3c2C(C)C)cn2ncnc2c1C` [Example 308, (R)-5-(7,8-dimethyl-[1,2,4]triazolo[1,5-a]pyridin-6-yl)-6-isopropyl-2-(2-methylpiperazin-1-yl)-4H-pyrrolo[3,2-d]thiazole, HCl], the half-inhibitory concentration (IC50) at human TLR7 stood at 0.18 nM; on human TLR8 it was 0.09 nM; against human TLR9, 15800 nM.
Turning to `COc1cc(-c2[nH]c3sc(C4CCC(N5CC(OC)C5)CC4)nc3c2C(C)C)cn2ncnc12` (single isomer, unassigned) [Example 123, 6-isopropyl-5-(8-methoxy-[1,2,4]triazolo[1,5-a]pyridin-6-yl)-2-(4-(3-methoxyazetidin-1-yl)cyclohexyl)-4H-pyrrolo[3,2-d]thiazole], the IC50 was 5.09 nM at human TLR7, 16.8 nM on human TLR8 and 6290 nM against human TLR9.
With `Cc1c(-c2[nH]c3sc(C4CCC(N(C)CC(C)C)CC4)nc3c2C(C)C)cn2ncnc2c1C` (single isomer, unassigned) [Example 229, 4-(5-(7,8-dimethyl-[1,2,4]triazolo[1,5-a]pyridin-6-yl)-6-isopropyl-4H-pyrrolo[3,2-d]thiazol-2-yl)-N-isobutyl-N-methylcyclohexan-1-amine], the IC50 at human TLR7 is 7.1 nM; at human TLR8, 3.71 nM; against human TLR9 it was 4960 nM.
Consider `Cc1c(-c2[nH]c3sc(C4CCC(NCC5(S(C)(=O)=O)CC5)CC4)nc3c2C(C)C)cn(C)c(=O)c1C` (single isomer, unassigned) [Example 258, 5-(6-isopropyl-2-(4-(((1-(methylsulfonyl)cyclopropyl)methyl)amino)cyclohexyl)-4H-pyrrolo[3,2-d]thiazol-5-yl)-1,3,4-trimethylpyridin-2(1H)-one], for which the half-inhibitory concentration (IC50) on human TLR7 is 36.5 nM; on human TLR8, 9.16 nM; against human TLR9, 29400 nM.
The corresponding values for `Cc1c(-c2[nH]c3sc(N4C[C@@H](C)N(CC(C)(C)O)C[C@@H]4C)nc3c2C(C)C)cn2ncnc2c1C` [Example 339, 1-((2R,5S)-4-(5-(7,8-dimethyl-[1,2,4]triazolo[1,5-a]pyridin-6-yl)-6-isopropyl-4H-pyrrolo[3,2-d]thiazol-2-yl)-2,5-dimethylpiperazin-1-yl)-2-methylpropan-2-ol] are 19.9 nM, 3.86 nM and 36600 nM.
As for `Cc1c(-c2[nH]c3sc(C4CCC(N5CC(O)C5)CC4)nc3c2C(C)C)cn2ncnc2c1C` (single isomer, unassigned) [Example 224, 1-(4-(5-(7,8-dimethyl-[1,2,4]triazolo[1,5-a]pyridin-6-yl)-6-isopropyl-4H-pyrrolo[3,2-d]thiazol-2-yl)cyclohexyl)azetidin-3-ol], the concentration for half-maximal inhibition (IC50) on human TLR7 is 0.56 nM; on human TLR8 it was 0.63 nM; at human TLR9, 9030 nM.
The corresponding values for `Cc1cc2ncnn2cc1-c1[nH]c2sc(C3CCC(N(C)C(C)C)CC3)nc2c1C(C)C` (single isomer, unassigned) [Example 158, N-isopropyl-4-(6-isopropyl-5-(7-methyl-[1,2,4]triazolo[1,5-a]pyridin-6-yl)-4H-pyrrolo[3,2-d]thiazol-2-yl)-N-methylcyclohexan-1-amine] are 8.95 nM, 31 nM and 14300 nM.
For `Cc1c(-c2[nH]c3sc(C4CCC(N5CC(O)C5)CC4)nc3c2C(C)C)cn(C)c(=O)c1C` (single isomer, unassigned) [Example 264, 5-(2-(4-(3-hydroxyazetidin-1-yl)cyclohexyl)-6-isopropyl-4H-pyrrolo[3,2-d]thiazol-5-yl)-1,3,4-trimethylpyridin-2(1H)-one], the IC50 on human TLR7 was 26.8 nM; at human TLR8, 22.9 nM; at human TLR9, 22000 nM.
The corresponding values for `CCN(C)C1CCC(c2nc3c(C(C)C)c(-c4cc(C)c5ncnn5c4)[nH]c3s2)CC1` (single isomer, unassigned) [Example 132, N-ethyl-4-(6-isopropyl-5-(8-methyl-[1,2,4]triazolo[1,5-a]pyridin-6-yl)-4H-pyrrolo[3,2-d]thiazol-2-yl)-N-methylcyclohexan-1-amine] are 0.36 nM, 2.73 nM and 2140 nM.
As to `CCC(CC)CN1CCC(c2nc3c(C(C)C)c(-c4cn5ncnc5c(C)c4C)[nH]c3s2)CC1` [Example 54, 5-(7,8-dimethyl-[1,2,4]triazolo[1,5-a]pyridin-6-yl)-2-(1-(2-ethylbutyl)piperidin-4-yl)-6-isopropyl-4H-pyrrolo[3,2-d]thiazole], the IC50 on human TLR7 was 1.1 nM; at human TLR8, 3.74 nM; on human TLR9 it was 6670 nM.

The values above are taken from US20230139171A1 (SITA Information Networking Computing UK Limited, priority 2019, published 2023).
